Patent US20090325964A1, “Piperazine Metabotropic Glutamate Receptor 5 (MGLUR5) Negative Allosteric Modulators For Anxiety/Depression” (Wyeth, priority 2008, published 2009)

Molecular target: T1, rat mGluR5 receptor (Rattus norvegicus, UniProt P31424)
T1 construct: expressed in transfected cells; host or cells: HEK-293
Assay: [3H]-MPEP displacement binding assay, HEK-293 cell membranes expressing rat mGluR5
Settings: for inhibition at 10 µM: 1 h, single point, @ 10 μm compound, Table 1A, read-out: PCT INHIB (%) @ 10 μm; for Ki: read-out: Median Ki
Method: MGluR5 expressing HEK-293 cells were scraped off a plate, transferred to centrifuge tubes and washed twice by centrifugation (2000 rpm for 10 minutes, at 4° C.) in buffer (50 mM Tris pH 7.5). The resulting pellets were aliquoted and stored at minus 80° C. On the day of assay, the cells were thawed on ice and re-suspended in buffer. The binding assay was performed in a 96 well microtiter plate in a total volume of […]. Non-specific binding was determined in the presence of 10 μM MPEP. The binding reaction included a final radioligand [^3H]-MPEP concentration of 4 nM and 12-25 μg membrane protein per well. Following a 60 minute incubation at room temperature, the reaction was terminated by the addition of ice cold buffer and rapid filtration through a GF/B filter that had been presoaked for 30 minutes in 0.5% PEI. Compounds were initially tested in a single point assay to determine percent inhibition at 10 μM.
Percent inhibition and Ki values were generated by GraphPad Prism and Excel Fit. IC50 values were calculated using GraphPad by fitting to a 1 or 2 site-binding model.
where [L] is the concentration of free radioligand and Kd is the dissociation constant of radioligand for the receptor.

T1 sequence (P31424 21-1203): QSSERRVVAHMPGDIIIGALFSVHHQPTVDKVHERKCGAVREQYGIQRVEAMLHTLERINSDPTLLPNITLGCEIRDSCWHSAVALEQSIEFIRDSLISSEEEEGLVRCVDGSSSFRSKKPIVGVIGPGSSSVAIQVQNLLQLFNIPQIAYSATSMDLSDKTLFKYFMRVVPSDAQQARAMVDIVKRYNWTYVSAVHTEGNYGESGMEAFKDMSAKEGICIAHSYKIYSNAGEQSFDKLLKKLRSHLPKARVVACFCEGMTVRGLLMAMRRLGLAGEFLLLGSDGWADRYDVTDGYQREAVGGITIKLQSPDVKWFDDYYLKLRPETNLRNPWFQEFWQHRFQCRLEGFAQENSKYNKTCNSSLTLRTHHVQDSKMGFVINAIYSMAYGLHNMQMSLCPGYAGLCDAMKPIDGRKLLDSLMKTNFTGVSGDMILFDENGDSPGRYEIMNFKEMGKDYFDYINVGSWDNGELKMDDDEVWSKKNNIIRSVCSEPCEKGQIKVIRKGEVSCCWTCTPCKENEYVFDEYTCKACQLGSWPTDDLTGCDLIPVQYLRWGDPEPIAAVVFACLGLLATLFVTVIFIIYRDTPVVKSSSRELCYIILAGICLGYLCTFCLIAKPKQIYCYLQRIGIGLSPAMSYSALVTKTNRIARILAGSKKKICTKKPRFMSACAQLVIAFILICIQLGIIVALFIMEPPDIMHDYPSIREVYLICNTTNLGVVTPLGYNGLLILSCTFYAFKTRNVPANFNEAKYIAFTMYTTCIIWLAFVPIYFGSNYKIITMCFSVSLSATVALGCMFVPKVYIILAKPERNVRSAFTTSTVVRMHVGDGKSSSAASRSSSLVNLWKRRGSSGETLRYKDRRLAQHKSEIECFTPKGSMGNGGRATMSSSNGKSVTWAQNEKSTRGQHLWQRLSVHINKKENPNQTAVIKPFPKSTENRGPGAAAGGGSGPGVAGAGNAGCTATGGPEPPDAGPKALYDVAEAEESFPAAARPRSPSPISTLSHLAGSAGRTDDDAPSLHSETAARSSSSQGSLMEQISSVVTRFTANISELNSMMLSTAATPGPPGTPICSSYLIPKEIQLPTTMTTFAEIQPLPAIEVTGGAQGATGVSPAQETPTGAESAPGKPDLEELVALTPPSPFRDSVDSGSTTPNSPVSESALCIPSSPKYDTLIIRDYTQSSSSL

SMILES	inhibition at 10 µM [%]	Ki [nM]
Cc1ccc(C(=O)N2CCN(c3ccccn3)CC2)cc1C#Cc1cc(F)cc(F)c1 [Compound 29, 1-{3-[(3,5-difluorophenyl)ethynyl]-4-methylbenzoyl}-4-pyridin-2-ylpiperazine]	41	–
Cc1ccc(C)c(C#Cc2cc(C(=O)N3CCN(c4ccccn4)CC3)ccc2C)c1 [Compound 30, 1-{3-[(2,5-dimethylphenyl)ethynyl]-4-methylbenzoyl}-4-pyridin-2-ylpiperazine]	55	3810
Cc1cc(C#Cc2cc(C(=O)N3CCN(c4ccccn4)CC3)ccc2C)ccc1F [Compound 31, 1-{3-[(4-fluoro-3-methylphenyl)ethynyl]-4-methylbenzoyl}-4-pyridin-2-ylpiperazine]	68	472
Cc1ccc(C(=O)N2CCN(c3ccccn3)CC2)cc1C#Cc1cccnc1 [Compound 32, 1-[4-methyl-3-(pyridin-3-ylethynyl)benzoyl]-4-pyridin-2-ylpiperazine]	68	3110
COc1ccc(C(=O)N2CCN(c3ccccn3)CC2)cc1C#Cc1cccc(O)c1 [Compound 33, 3-({2-methoxy-5-[(4-pyridin-2-ylpiperazin-1-yl)carbonyl]phenyl}ethynyl)phenol]	82	541
COc1ccc(C(=O)N2CCN(c3ccccn3)CC2)cc1C#Cc1cccc(N)c1 [Compound 34, 3-({2-methoxy-5-[(4-pyridin-2-ylpiperazin-1-yl)carbonyl]phenyl}ethynyl)aniline]	62	299
COc1ccc(C(=O)N2CCN(c3ccccn3)CC2)cc1C#Cc1cccnc1 [Compound 35, 1-[4-methoxy-3-(pyridin-3-ylethynyl)benzoyl]-4-pyridin-2-ylpiperazine]	67	898
Cc1ccc(C(=O)N2CCN(c3ccccn3)CC2)cc1C#Cc1cccc(N)c1 [Compound 36, 3-({2-methyl-5-[(4-pyridin-2-ylpiperazin-1-yl)carbonyl]phenyl}ethynyl)aniline]	79	474
COc1ccc(C(=O)N2CCN(c3ccccn3)CC2)cc1C#Cc1ccc(F)c(C)c1 [Compound 37, 1-{3-[(4-fluoro-3-methylphenyl)ethynyl]-4-methoxybenzoyl}-4-pyridin-2-ylpiperazine]	74	54.7
Cc1cccc(C#Cc2cc(C(=O)N3CCN(c4ccccn4)CC3)ccc2C)c1 [Compound 39, 1-{4-methyl-3-[(3-methylphenyl)ethynyl]benzoyl}-4-pyridin-2-ylpiperazine]	83	57.1
COc1cc(C#Cc2cc(C(=O)N3CCN(c4ccccn4)CC3)ccc2C)cc(OC)c1 [Compound 40, 1-{3-[(3,5-dimethoxyphenyl)ethynyl]-4-methylbenzoyl}-4-pyridin-2-ylpiperazine]	0	–
Cc1cc(C)c(C#Cc2cc(C(=O)N3CCN(c4ccccn4)CC3)ccc2C)cc1C [Compound 41, 1-{4-methyl-3-[(2,4,5-trimethylphenyl)ethynyl]benzoyl}-4-pyridin-2-ylpiperazine]	0	–
Cc1ccc(C(=O)N2CCN(c3ccccn3)CC2)cc1C#Cc1ccccn1 [Compound 42, 1-[4-methyl-3-(pyridin-2-ylethynyl)benzoyl]-4-pyridin-2-ylpiperazine]	96	5.9
COc1ccc(C(=O)N2CCN(c3ccccn3)CC2)cc1C#Cc1cccc(C(F)(F)F)c1 [Compound 43, 1-(4-methoxy-3-{[3-(trifluoromethyl)phenyl]ethynyl}benzoyl)-4-pyridin-2-ylpiperazine]	82	278
COc1ccc(C(=O)N2CCN(c3ccccn3)CC2)cc1C#Cc1cc(C(F)(F)F)cc(C(F)(F)F)c1 [Compound 44, 1-(3-{[3,5-bis(trifluoromethyl)phenyl]ethynyl}-4-methoxybenzoyl)-4-pyridin-2-ylpiperazine]	0	–
COc1ccc(C(=O)N2CCN(c3ccccn3)CC2)cc1C#Cc1ccncc1 [Compound 45, 1-[4-methoxy-3-(pyridin-4-ylethynyl)benzoyl]-4-pyridin-2-ylpiperazine]	68	990
Cc1ccc(C(=O)N2CCN(c3ccccn3)CC2)cc1C#Cc1cccc(O)c1 [Compound 46, 3-({2-methyl-5-[(4-pyridin-2-ylpiperazin-1-yl)carbonyl]phenyl}ethynyl)phenol]	71	1310
Cc1ccc(C(=O)N2CCN(c3ccccn3)CC2)cc1C#Cc1cc(C(F)(F)F)cc(C(F)(F)F)c1 [Compound 47, 1-(3-{[3,5-bis(trifluoromethyl)phenyl]ethynyl}-4-methylbenzoyl)-4-pyridin-2-ylpiperazine]	0	–
Cc1ccc(C(=O)N2CCN(c3ccccn3)CC2)cc1C#Cc1ccncc1 [Compound 48, 1-[4-methyl-3-(pyridin-4-ylethynyl)benzoyl]-4-pyridin-2-ylpiperazine]	49	–
COc1ccc(C(=O)N2CCN(c3cnccn3)CC2)cc1C#CC1=CCCCC1 [Compound 50, 2-{4-[3-(cyclohex-1-en-1-ylethynyl)-4-methoxybenzoyl]piperazin-1-yl}pyrazine]	90	171
COc1ccc(C(=O)N2CCN(c3cnccn3)CC2)cc1C#CCc1ccccc1 [Compound 51, 2-{4-[4-methoxy-3-(3-phenylprop-1-yn-1-yl)benzoyl]piperazin-1-yl}pyrazine]	92	33.9
COc1cccc(C#Cc2cc(C(=O)N3CCN(c4cnccn4)CC3)ccc2OC)c1 [Compound 52, 2-(4-{4-methoxy-3-[(3-methoxyphenyl)ethynyl]benzoyl}piperazin-1-yl)pyrazine]	81	60.1
COc1ccc(C(=O)N2CCN(c3cnccn3)CC2)cc1C#Cc1cccc(C)c1 [Compound 53, 2-(4-{4-methoxy-3-[(3-methylphenyl)ethynyl]benzoyl}piperazin-1-yl)pyrazine]	95	8.63
COc1ccc(C(=O)N2CCN(c3cnccn3)CC2)cc1C#Cc1cccc(C(F)(F)F)c1 [Compound 54, 2-[4-(4-methoxy-3-{[3-(trifluoromethyl)phenyl]ethynyl}benzoyl)piperazin-1-yl]pyrazine]	96	109
Cc1ccc(C(=O)N2CCN(c3cnccn3)CC2)cc1C#CC1=CCCCC1 [Compound 56, 2-{4-[3-(cyclohex-1-en-1-ylethynyl)-4-methylbenzoyl]piperazin-1-yl}pyrazine]	70	1890
Cc1ccc(C(=O)N2CCN(c3cnccn3)CC2)cc1C#CCc1ccccc1 [Compound 57, 2-{4-[4-methyl-3-(3-phenylprop-1-yn-1-yl)benzoyl]piperazin-1-yl}pyrazine]	87	363
COc1cccc(C#Cc2cc(C(=O)N3CCN(c4cnccn4)CC3)ccc2C)c1 [Compound 58, 2-(4-{3-[(3-methoxyphenyl)ethynyl]-4-methylbenzoyl}piperazin-1-yl)pyrazine]	93	322
Cc1cccc(C#Cc2cc(C(=O)N3CCN(c4cnccn4)CC3)ccc2C)c1 [Compound 59, 2-(4-{4-methyl-3-[(3-methylphenyl)ethynyl]benzoyl}piperazin-1-yl)pyrazine]	100	62.5
